The values below come from US9725423B2, “Tetrazolinone compound and applications thereof” (SUMITOMO CHEMICAL COMPANY, LIMITED, priority 2012, dated 2017).

By mortality is commonly meant the share of the test organisms that died.

Test [1] deals with cucumber powdery mildew fungus (Sphaerotheca fuliginea). As to the kind of experiment: Cucumber powdery mildew control test, foliar spray on cucumber (Test Examples 6, 12, Comparative Test Example). The test is classed as in vivo. Conditions: 200 ppm, cucumber (SAGAMI HANJIRO), 8 days after inoculation.
Test [2] deals with diamondback moth (Plutella xylostella). As to the kind of experiment: Diamondback moth mortality test on sprayed cabbage (Test Example 15). The format is in vivo. Conditions: 120 h, 20 mL/cup sprayed on cabbage, second-instar larvae, 25° C., after 5 days. Here is the method: Each of formulations of the present compounds 6, 9, 26, 28, 31, 32, 33, 36, 71, 109, 114, 115, 125, and 149 obtained in Formulation Example 6 was diluted with water so that the concentration of the active ingredient is controlled to 500 ppm to prepare a test spraying solution. Meanwhile, the above test chemical solution was sprayed over three-leaf stage cabbage sowed in a polyethylene cup in the proportion of 20 mL/cup. After drying the chemical solution, stem and leaf portions were cut off and put in a 50 mL cup and five second-instar larvae of diamondback moth (Plutella xylostella) were released, and then the cup was capped. The cup was stored at 25° C. and, after 5 days, the number of surviving worms was counted and mortality was determined by the following equation. Mortality (%)=[(Number of dead insects)/(Number of tested insects)]×100

On to `CC(=NOCc1cccc(C)c1-n1nnn(C)c1=O)c1cccc(C(F)(F)F)c1` [1-methyl-4-{2-methyl-6-[1-(3-trifluoromethylphenyl)ethylideneaminooxymethyl]phenyl}-1,4-dihydrotetrazol-5-one], for which the “area of lesion spots relative to that on an untreated plant” value in test [1] was not below 70%.

In the case of `CC(=NOCc1c(C)cccc1-n1nnn(C)c1=O)c1cccc(C(F)(F)F)c1` [1-{3-methyl-2-[1-(3-trifluoromethylphenyl)ethylideneaminooxymethyl]phenyl}-4-methyl-1,4-dihydrotetrazol-5-one], in test [1], the “area of lesion spots relative to that on an untreated plant” value was not above 30%.

As to `CC(=NOCc1c(Cl)cccc1-n1nnn(C)c1=O)c1cccc([N+](=O)[O-])c1` [present compound 6, 1-{3-chloro-2-[1-(3-nitrophenyl)ethylideneaminooxymethyl]phenyl}-4-methyl-1,4-dihydrotetrazol-5-one], the mortality at 500 ppm in test [2] is not below 80%.

`CC(=NOCc1c(Cl)cccc1-n1nnn(C)c1=O)c1cccc(OC(F)(F)C(F)F)c1` [present compound 9, 1-(3-chloro-2-{1-[3-(1,1,2,2-tetrafluoroethoxyl)phenyl]ethylideneaminooxymethyl]phenyl}-4-methyl-1,4-dihydrotetrazol-5-one] came in with a mortality at 500 ppm in test [2] not below 80%.

In the case of `Cn1nnn(-c2cccc(Cl)c2CON=C(c2ccccc2)C(F)(F)F)c1=O` [present compound 26, 1-[3-chloro-2-(2,2,2-trifluoro-1-phenylethylideneaminooxymethyl)phenyl]-4-methyl-1,4-dihydrotetrazol-5-one], the mortality at 500 ppm in test [2] is not below 80%.

In test [2], `CC(=NOCc1c(Cl)cccc1-n1nnn(C)c1=O)c1cc(F)cc(F)c1` [present compound 28, 1-{3-chloro-2-[1-(3,5-difluorophenyl)ethylideneaminooxymethyl]phenyl}-4-methyl-1,4-dihydrotetrazol-5-one] displayed a mortality at 500 ppm not below 80%.

`CC(=NOCc1c(C)cccc1-n1nnn(C)c1=O)c1cccc(Cl)c1` [present compound 31, 1-{3-methyl-2-[1-(3-chlorophenyl)ethylideneaminooxymethyl]phenyl}-4-methyl-1,4-dihydrotetrazol-5-one] came in with a mortality at 500 ppm in test [2] not below 80%.

For `CC(=NOCc1c(C)cccc1-n1nnn(C)c1=O)c1cccc(OC(F)(F)F)c1` [present compound 32, 1-{3-methyl-2-[1-(3-trifluoromethoxyphenyl)ethylideneaminooxymethyl]phenyl}-4-methyl-1,4-dihydrotetrazol-5-one], the mortality at 500 ppm in test [2] was not below 80%.

With `CC(=NOCc1c(C)cccc1-n1nnn(C)c1=O)c1cccc(OC(F)(F)C(F)F)c1` [present compound 33, 1-(3-methyl-2-{1-[3-(1,1,2,2-tetrafluoroethoxyl)phenyl]ethylideneaminooxymethyl}phenyl)-4-methyl-1,4-dihydrotetrazol-5-one], the mortality at 500 ppm in test [2] is not below 80%.

In the case of `CC(=NOCc1c(C)cccc1-n1nnn(C)c1=O)c1ccc2ccccc2c1` [present compound 36, 1-[3-methyl-2-(1-naphthalen-2-ylethylideneaminooxymethyl)phenyl]-4-methyl-1,4-dihydrotetrazol-5-one], the mortality at 500 ppm in test [2] was not below 80%.

`CC(=NOCc1c(C)cccc1-n1nnn(C)c1=O)c1cccc(C)c1` [present compound 71, 1-{3-methyl-2-[1-(3-methylphenyl)ethylideneaminooxymethyl]phenyl}-4-methyl-1,4-dihydrotetrazol-5-one]: the mortality at 500 ppm in test [2] is not below 80%.

For `CC(=NOCc1c(C)cccc1-n1nnn(C)c1=O)c1cccc(N(C)C)c1` [present compound 109, 1-{2-[1-(3-dimethylaminophenyl)ethylideneaminooxymethyl]-3-methylphenyl}-4-methyl-1,4-dihydrotetrazol-5-one], in test [2], the mortality at 500 ppm is not below 80%.

`CC(=NOCc1c(-n2nnn(C)c2=O)cccc1C(F)(F)F)c1cccc(OC(F)(F)F)c1` [present compound 114, 1-{2-[1-(3-trifluoromethoxyphenyl)ethylideneaminooxymethyl]-3-trifluoromethylphenyl}-4-methyl-1,4-dihydrotetrazol-5-one]: the mortality at 500 ppm in test [2] was not below 80%.

With `CC(=NOCc1c(-n2nnn(C)c2=O)cccc1C(F)(F)F)c1ccc2c(c1)CCC2` [present compound 115, 1-[2-(1-indan-5-ylethylideneaminooxymethyl)-3-trifluoromethylphenyl]-4-methyl-1,4-dihydrotetrazol-5-one], the mortality at 500 ppm in test [2] was not below 80%.

As to `CC(=NOCc1c(C2CC2)cccc1-n1nnn(C)c1=O)c1cccc2c1CCC2` [present compound 125, 1-[3-cyclopropyl-2-(1-indan-4-ylethylideneaminooxymethyl)phenyl]-4-methyl-1,4-dihydrotetrazol-5-one], the mortality at 500 ppm in test [2] was not below 80%.

Turning to `CC(=NOCc1c(C)cccc1-n1nnn(C)c1=O)c1ccccc1` [present compound 149, 1-[2-(1-phenylethylideneaminooxymethyl)-3-methylphenyl]-4-methyl-1,4-dihydrotetrazol-5-one], the mortality at 500 ppm in test [2] was not below 80%.
